Measurements as given in a melting point compilation (Tetko et al.; mined from patent text by program, amines drawn as free bases though some values may be those of a salt).

Compound	melting point
CNS(=O)(=O)Nc1ncccc1C(=O)OC	133 to 139 °C
CC=CC=CC(=O)N1CC1C#N (stereo not drawn)	56 to 58 °C
CC(=O)NC[C@H]1CN(c2ccc(-n3nccc3-c3ccc(Br)cc3)c(F)c2)C(=O)O1	96.8 to 98.8 °C
CCCCCP(=S)(CCCCC)NP(=S)(CCCCC)CCCCC	59 to 63.5 °C
COC(=O)C(C)=C(C(=O)OC)C1C=CC=CC1(C)C(C(=O)OC)=C(C)C(=O)OC (stereo not drawn)	90 °C
CCn1c(C(O)(c2cccc(F)c2)c2cccc(F)c2)nc(-c2ccncc2)c1-c1ccc(Cl)cc1	225 to 227 °C
OCc1cc(-c2ccccc2)cs1	112 to 113 °C
COC(=O)C1(S(=O)(=O)N2CCC(=O)CC2)CCOCC1	158 to 160 °C
CC(=O)C1(COC(N)=O)CC2C=CC1C2 (stereo not drawn)	118 to 119 °C
O=C(Nc1cccc(S(=O)(=O)N2CCOCC2)c1)c1cnn2c(C(F)(F)F)cc(-c3ccc(Cl)c(Cl)c3)nc12	239 °C
O=Cc1ccc(OC2CCCC2)c(O)c1	87 to 89 °C
COc1ccc(C(O)CCSc2ccc(S(N)(=O)=O)s2)cc1 (stereo not drawn)	111 to 112 °C
O=C1[C@H]2CCC[C@H]2N(C(=O)CN2CCN(c3ccccc3)CC2)c2ccccc2N1Cc1ccccc1 (relative stereo)	164 to 165 °C
O=C(O)COc1cccc2c1CCc1sc(SCCCC(c3ccccc3)c3ccccc3)nc1-2	136 to 138 °C
Oc1ccc2cc(OCCN3CCC(Cc4ccc(F)cc4)CC3)ccc2c1	184 to 185 °C
COc1cc(C(=O)NNC(=O)c2occ(-c3ccccc3)c2-c2ccccc2)ccc1OCc1ccccc1	203 to 204 °C
CS(=O)(=O)Nc1cc([C@@H](O)CNC2CCN(c3ccc(S(=O)(=O)N4CC(=O)NC4=O)cc3)CC2)ccc1O	200 to 202 °C
CCCCCC(CC(=O)Nc1cc(C(N)=O)ccc1C(C)(C)C)c1cc(OC)c(OC)cc1OC (stereo not drawn)	166 to 167 °C
COc1ccc2c(c1)C(=O)c1ccccc1C2	94.5 to 97.5 °C
COc1ccc(N2C(=O)C(N3C(=O)c4ccccc4C3=O)C2C(C)=Cc2ccccc2)cc1 (stereo not drawn)	105 to 107 °C
Cc1cc(=O)c(C(=O)Oc2ccccc2)nn1-c1ccc(Cl)cc1	140 to 146 °C
COc1cc(-c2nc3cc(OC)cc(OC)c3c(=O)[nH]2)cc(N2CCN(C(C)C)CC2)c1	212 to 213 °C

Compound	melting point
COc1ccc(-c2[nH]nc3c2C(=O)c2c(NC(=O)NNC(=O)c4ccc(O)cc4)cccc2-3)cc1	283 °C
CC(=O)c1ccc2c(c1)CCCN2C(=O)OC(C)(C)C	80 to 82 °C
O=C(CCC(O)c1cccs1)Nc1cccc2cc(-c3nccs3)[nH]c12 (stereo not drawn)	155 to 157 °C
O=C(Sc1ccccn1)c1ccncc1	115 °C
CCP(=O)(CC)C(O)[C@H](CC1CCCCC1)NC(=O)[C@H](CC(C)C)NC(=O)[C@H](Cc1ccccc1)NC(=O)C1CCCC1 (stereo partly drawn)	170 to 171 °C
CCOC(=O)c1ncn2c1c(Cl)nc1ccccc12	128 to 130 °C
CNNC(=O)Nc1ncnc2cc(OC)c(OC)cc12	246 to 247 °C
CCCC=CCOc1ccc(C(C)(C)CC(C)(C)C)cc1-n1nc2ccccc2n1	80 to 81 °C
Cc1nnc2n1CC(=O)N(C)c1ccc(Cl)cc1-2	228 to 230 °C
CC(C)(C)OC(=O)[C@H]1CC[C@@H](c2ccccc2)N1C(=O)CNC(=O)Nc1cccc(CO)c1 (racemic)	168 °C
CC(C)(C)OC(=O)Nc1ccccc1NC(=O)c1ccc(C(=O)O)cc1	190 to 192 °C
O=C(NCc1ccccn1)Nc1cc(N2C(=O)CCc3ccccc32)ccn1	194 to 195 °C
Clc1ccc(-c2ccc3nncn3n2)cc1	216 to 218 °C
Oc1cc(Cl)c2c(C34CC5CC(CC(C5)C3)C4)noc2c1	215 °C
COc1ccc(O)c(C(=O)c2ccc(O)cc2)c1	144 to 148 °C
N#Cc1ccc(NC(=O)c2c(O)ccc3ccccc23)c(OC(F)(F)F)c1	169 °C
CC(C)c1ccc(S(=O)(=O)c2ccccc2)cc1S(=O)(=O)NC1CCN(C(=O)c2cccc(F)c2)CC1	215 to 218 °C
Nc1c(C2CNCCO2)oc2ccccc2c1=O (stereo not drawn)	140 to 141 °C
CCOc1ccc(S(C)(=O)=O)cc1C(=O)O	139 to 141 °C
Cc1cccc(SCn2cc(Cl)cnc2=O)c1	134 °C
CCCN(CCCCC12CC3CC(CC(C3)C1)C2)C(=O)NCCCc1ccncc1	110 °C
COC(=O)C1=C(C)NC(C)=C(C(=O)OCCN)C1c1cccc2c(=O)c(C)c(-c3ccccc3)oc12 (stereo not drawn)	188 to 192 °C

Next, values leading:

melting point	Compound
300 °C	O=C(Nc1ccc(Br)c2c1C(=O)c1ccccc1C2=O)c1ccccc1
103 to 105 °C	CCCc1c(Cl)oc2ccc(I)cc2c1=O
236 to 238 °C	Cc1cc(C=Cc2ccccc2O)on1
70.5 to 72 °C	CON=C(c1ccccc1OCc1ccc(C)cc1)n1ccnc1
233 to 235 °C	O=C(O)c1ccc(N2CCSCC2)cc1
104 to 106 °C	CCCOc1c(-c2cc(C=CC(=O)O)ccc2O)cc(C(C)(C)C)cc1C(C)(C)C
279 to 281 °C	CCc1nc2c(N)nc3ccccc3c2n1CC(C)(C)C(N)=O
134 to 140 °C	CCC(C)(CC)C1=NN=C(NC(=O)c2c(OC)cccc2OC)SC1
177 to 179 °C	O=C(O)c1cccc(CN2CCC(c3cn(Cc4ccoc4)c4ncccc34)CC2)c1
174 °C	CC(=O)NCC1=C(n2ccccc2=O)c2cc(C(F)(F)F)ccc2OC1(C)C
286 to 289 °C	CC(C)Cc1[nH]c(=O)[nH]c1-c1cc(C(C)(C)C)c(O)c(C(C)(C)C)c1
76 to 78 °C	Cn1cc(C(=O)Nc2ccccc2-c2cccc(C#N)c2)c(C(F)(F)F)n1
173 to 181 °C	Cc1ccc(S(=O)(=O)Nc2ccccc2C(=O)NCCc2ncc[nH]2)cc1
219 to 221 °C	O=C(O)c1cc2ccc3c(c2c(-c2ccc4c(c2)OCO4)c1COCc1ccccc1)OCO3
> 300 °C	C[C@H]1CCCN(C(=O)[C@@H]2Cc3ccccc3N2c2ccc3nncn3n2)C1
172 to 174 °C	COC(=O)C(=CN(C)C)N(C)c1cc(-c2cccc(OC)c2)ncn1
214 to 215 °C	CCc1ccc(Cl)c(S(=O)(=O)NC(=O)c2cn3cc(C(F)(F)F)cc(Cl)c3n2)c1
43 to 45 °C	O=c1cc(Cl)cc(Cl)o1
79 to 80 °C	CCOC(CC(=O)Nc1cc(CCNC(=O)C(F)(F)F)ccc1OC)OCC
144 to 147 °C	Cc1cccc(-c2cn(C)cc(-c3cccc(Br)c3)c2=O)c1
139 to 140 °C	COCc1ncnc(O)c1C
178 °C	CCCCCCCCCCCCCCCCCCOC(=O)Nc1ccc(NC(=O)NS(=O)(=O)c2ccc3ccccc3c2)cc1
160 to 161 °C	COC(=O)CCc1ccc(Sc2ccccc2C(=O)O)c([N+](=O)[O-])c1
75 to 77 °C	CC12CCC3c4ccc(N)cc4CCC3C1CCC2O (stereo not drawn)
332 to 336 °C	N#CCCn1c2ccc(O)cc2c2c3c(c(-c4ccccc4Cl)cc21)C(=O)NC3=O
137 to 139 °C	NC(=O)C1CN(Cc2nc(-c3ccccc3)c(-c3ccccc3)o2)CCN1CC(=O)Nc1c(Cl)cc(N)cc1Cl (stereo not drawn)
145 to 147 °C	COC(=O)NC1=NCC(c2ccccc2)N1C (stereo not drawn)

melting point	Compound
148 to 150 °C	Cn1c([N+](=O)[O-])cnc1C(N)=S
300 to 303 °C	CC12CCC3c4ccc(C(=O)O)cc4CCC3C1CCC2C(=O)c1ccc(C(F)(F)F)cc1 (stereo not drawn)
47.5 to 49.5 °C	CCN(CC)NC(C)=O
53 to 56 °C	C[C@H]1CCCC(C)(C)[C@@H]1C(=O)c1ccc(C#N)c(F)c1
135 to 137 °C	O=C(O)c1ccnc(NC(=O)C(Cc2ccccc2)NP(=O)(O)O)c1 (stereo not drawn)
96 to 98 °C	O=C(O)c1cccc(COc2ccccc2Cl)c1OCc1ccccc1Cl
205 to 207 °C	Cc1ccc(-n2nc(C(C)(C)C)cc2NC(=O)Nc2ccc(OCCN3CCS(=O)CC3)c3ccccc23)cc1
224 to 226 °C	CN1CCN(c2cccc3c2C[C@H](NC(=O)c2ccc(C4CCCCC4)cc2)CC3)CC1
228 to 229 °C	Cc1ccnc(-c2nc3ccccc3[nH]2)c1
99 to 101 °C	COc1ccc(N2C(=O)O[C@H](CO)[C@@H]2C)cc1
174 to 177 °C	CCOC(=O)c1c(N)oc(-c2ccc([N+](=O)[O-])cc2)c1C(=O)OCC
91 to 92 °C	CN(C)c1cc(C(OC(=O)C(Cl)(Cl)Cl)c2ccccc2)c([N+](=O)[O-])cc1[N+](=O)[O-] (stereo not drawn)
158 °C	CC(C)Nc1cccnc1N1CCN(C(=O)c2ccc(C(=O)N3CCN(CC(O)CO)CC3)cc2)CC1 (stereo not drawn)
81 to 82 °C	COC(=O)CCC(CCCCNS(=O)(=O)c1ccc(Cl)cc1)CCCc1cccnc1 (stereo not drawn)
61 to 64 °C	Cc1nc(OCC(F)(F)F)c([N+](=O)[O-])c(N2CCC(c3ccc(F)cc3)CC2)n1
> 260 °C	O=C(O)c1ccc2oc(-c3ccc(C(F)(F)F)nc3)cc2c1
91 to 92 °C	C=C(C)C1(CC(C)C)CCN(C(Cc2ccccc2)C(=O)NC)C1=O (stereo not drawn)
107 to 110 °C	O=S(=O)(CCCCCOc1ccc(C2=C(c3ccccc3)CCCc3cc(OC4CCCCO4)ccc32)cc1)CCCC(F)(F)C(F)(F)F (stereo not drawn)
158 to 159 °C	O=CN(O)C(CCO)CS(=O)(=O)c1ccc(-c2ccc(Cl)cc2)cc1 (stereo not drawn)
112 to 113 °C	CCCCCCCCCCCCCCOc1ccc(C(=O)O)cc1OCCCCCCCCCCCCCC
168 to 170 °C	Cc1ccnc(Cl)c1C(N)=O
295 °C	CC(C)(C)C(=O)Nc1cc2c(O)nc[nH]c-2n1
86 to 88 °C	CCON=Cc1ccccc1OCc1ccccc1C(=COC)C(=O)OC
238 °C	N#Cc1c(N2CCN(C(=O)c3cccs3)CC2)c2cscc2n(Cc2ccc(F)cc2)c1=O
248 °C	O=C(Nc1cccc2c(OC(=O)c3c(Cl)cccc3Cl)ccnc12)c1c(Cl)cccc1Cl
68 to 71 °C	Cc1cc(SC2=C(O)CC(CCC3CCCC3)(C3CCCC3)OC2=O)c(C(C)(C)C)cc1CO (stereo not drawn)
234 to 235 °C	CC(=O)c1cccc2c1C1(COc3cc4c(cc31)OCCO4)C(=O)N2C (stereo not drawn)
